Legend:
Test in all cases: Test B pre-/postemergence plant response
Type in all cases: in vivo
[1] = test system: yellow nutsedge (Cyperus esculentus)
How it was run: (§1)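 Ratings reflect visual comparison with untreated controls 13 to 15 days after application, from 0 (no effect) to 100 (complete control). Application was preemergence to seeded loam/sand soil or postemergence to 1- to 4-leaf plants, with compound in a non-phytotoxic, surfactant-containing solvent.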

[2] = test system: green foxtail (Setaria viridis)
How it was run: as §1

[3] = test system: velvetleaf (Abutilon theophrasti)
How it was run: as §1

[4] = test system: Surinam grass (Brachiaria decumbens)
How it was run: as §1

[5] = test system: goosegrass (Eleusine indica)
How it was run: as §1

corn (Zea mays) = test system: corn (Zea mays)
How it was run: as §1

[6] = test system: johnsongrass (Sorghum halepense)
How it was run: as §1

wild oat (Avena fatua) = test system: wild oat (Avena fatua)
How it was run: as §1

[7] = test system: woolly cupgrass (Eriochloa villosa)
How it was run: as §1

[8] = test system: downy bromegrass (Bromus tectorum)
How it was run: as §1

[9] = test system: large crabgrass (Digitaria sanguinalis)
How it was run: as §1

[10] = test system: lambsquarters (Chenopodium album)
How it was run: as §1

soybean (Glycine max) = test system: soybean (Glycine max)
How it was run: as §1

kochia (Kochia scoparia) = test system: kochia (Kochia scoparia)
How it was run: as §1

[11] = test system: blackgrass (Alopecurus myosuroides)
How it was run: as §1

[12] = test system: morningglory (Ipomoea coccinea)
How it was run: as §1

[13] = test system: pigweed (Amaranthus retroflexus)
How it was run: as §1

[14] = 31 g ai/ha, postemergence, scale 0 to 100, 0 is no effect, 100 is complete control
[15] = 62 g ai/ha, postemergence, 0 is no effect, 100 is complete control, 13 to 15 days
[16] = Postemergence, 125 g ai/ha, visual rating after 13 to 15 days, scale 0 (no effect) to 100 (complete control)
[17] = Postemergence, 250 g ai/ha, scale 0 to 100 (0 no effect, 100 complete control)
[18] = Preemergence, 31 g ai/ha, scale 0 to 100 (0 no effect, 100 complete control)
[19] = Preemergence, 62 g ai/ha, scale 0 to 100, 0 no effect, 100 complete control
[20] = Preemergence, 125 g ai/ha, scale 0 to 100, 0 no effect, 100 complete control
[21] = Preemergence, 250 g ai/ha, 0 to 100 scale

CCCCn1c(CCC)ncc(C(=O)C2=C(O)CCCC2=O)c1=O [Compound 75]
Plant response rating, Nutsedge, Yellow [1, 14]: 10
Nutsedge, Yellow plant response rating (0 to 100 scale) [1, 15]: 65
Plant response rating, Nutsedge, Yellow [1, 16]: 70
Plant response rating, Nutsedge, Yellow [1, 17]: 75
Plant response rating, Nutsedge, Yellow [1, 18]: 60
Plant response rating, Nutsedge, Yellow [1, 19]: 80
Plant response rating, Nutsedge, Yellow [1, 20]: 90
Nutsedge, Yellow plant response rating [1, 21]: 90
Plant response rating, Foxtail, Green [2, 14]: 65
Foxtail, Green plant response rating (0 to 100 scale) [2, 15]: 85
Plant response rating, Foxtail, Green [2, 16]: 90
Plant response rating, Foxtail, Green [2, 17]: 90
Plant response rating, Foxtail, Green [2, 18]: 5
Plant response rating, Foxtail, Green [2, 19]: 50
Plant response rating, Foxtail, Green [2, 20]: 50
Foxtail, Green plant response rating [2, 21]: 98
Plant response rating, Velvetleaf [3, 14]: 100
Velvetleaf plant response rating (0 to 100 scale) [3, 15]: 100
Plant response rating, Velvetleaf [3, 16]: 100
Plant response rating, Velvetleaf [3, 17]: 100
Plant response rating, Velvetleaf [3, 18]: 100
Plant response rating, Velvetleaf [3, 19]: 100
Plant response rating, Velvetleaf [3, 20]: 100
Velvetleaf plant response rating [3, 21]: 100
Plant response rating, Surinam Grass [4, 14]: 50
Surinam Grass plant response rating (0 to 100 scale) [4, 15]: 50
Plant response rating, Surinam Grass [4, 16]: 70
Plant response rating, Surinam Grass [4, 17]: 85
Plant response rating, Surinam Grass [4, 18]: 40
Plant response rating, Surinam Grass [4, 19]: 60
Plant response rating, Surinam Grass [4, 20]: 60
Surinam Grass plant response rating [4, 21]: 75
Plant response rating, Goosegrass [5, 14]: 75
Goosegrass plant response rating (0 to 100 scale) [5, 15]: 80
Plant response rating, Goosegrass [5, 16]: 95
Plant response rating, Goosegrass [5, 17]: 98
Plant response rating, Goosegrass [5, 18]: 95
Plant response rating, Goosegrass [5, 19]: 100
Plant response rating, Goosegrass [5, 20]: 100
Goosegrass plant response rating [5, 21]: 100
Plant response rating, Corn (corn (Zea mays); [14]): 0
Corn plant response rating (0 to 100 scale) (corn (Zea mays); [15]): 0
Plant response rating, Corn (corn (Zea mays); [16]): 20
Plant response rating, Corn (corn (Zea mays); [17]): 55
Plant response rating, Corn (corn (Zea mays); [18]): 0
Plant response rating, Corn (corn (Zea mays); [19]): 0
Plant response rating, Corn (corn (Zea mays); [20]): 0
Corn plant response rating (corn (Zea mays); [21]): 0
Plant response rating, Johnsongrass [6, 14]: 0
Johnsongrass plant response rating (0 to 100 scale) [6, 15]: 10
Plant response rating, Johnsongrass [6, 16]: 20
Plant response rating, Johnsongrass [6, 17]: 75
Plant response rating, Johnsongrass [6, 18]: 0
Plant response rating, Johnsongrass [6, 19]: 10
Plant response rating, Johnsongrass [6, 20]: 65
Johnsongrass plant response rating [6, 21]: 70
Plant response rating, Oat, Wild (wild oat (Avena fatua); [14]): 0
Oat, Wild plant response rating (0 to 100 scale) (wild oat (Avena fatua); [15]): 20
Plant response rating, Oat, Wild (wild oat (Avena fatua); [16]): 50
Plant response rating, Oat, Wild (wild oat (Avena fatua); [17]): 60
Plant response rating, Oat, Wild (wild oat (Avena fatua); [18]): 0
Plant response rating, Oat, Wild (wild oat (Avena fatua); [19]): 0
Plant response rating, Oat, Wild (wild oat (Avena fatua); [20]): 0
Oat, Wild plant response rating (wild oat (Avena fatua); [21]): 0
Plant response rating, Cupgrass, Woolly [7, 14]: 10
Cupgrass, Woolly plant response rating (0 to 100 scale) [7, 15]: 55
Plant response rating, Cupgrass, Woolly [7, 16]: 55
Plant response rating, Cupgrass, Woolly [7, 17]: 80
Plant response rating, Cupgrass, Woolly [7, 18]: 5
Plant response rating, Cupgrass, Woolly [7, 20]: 55
Cupgrass, Woolly plant response rating [7, 21]: 75
Plant response rating, Bromegrass, Downy [8, 14]: 5
Bromegrass, Downy plant response rating (0 to 100 scale) [8, 15]: 20
Plant response rating, Bromegrass, Downy [8, 16]: 35
Plant response rating, Bromegrass, Downy [8, 17]: 50
Plant response rating, Bromegrass, Downy [8, 18]: 0
Plant response rating, Bromegrass, Downy [8, 19]: 0
Plant response rating, Bromegrass, Downy [8, 20]: 0
Bromegrass, Downy plant response rating [8, 21]: 0
Plant response rating, Crabgrass, Large [9, 14]: 95
Crabgrass, Large plant response rating (0 to 100 scale) [9, 15]: 98
Plant response rating, Crabgrass, Large [9, 16]: 100
Plant response rating, Crabgrass, Large [9, 17]: 100
Plant response rating, Crabgrass, Large [9, 18]: 98
Plant response rating, Crabgrass, Large [9, 19]: 100
Plant response rating, Crabgrass, Large [9, 20]: 100
Crabgrass, Large plant response rating [9, 21]: 100
Plant response rating, Lambsquarters [10, 14]: 98
Lambsquarters plant response rating (0 to 100 scale) [10, 15]: 100
Plant response rating, Lambsquarters [10, 16]: 100
Plant response rating, Lambsquarters [10, 17]: 100
Plant response rating, Lambsquarters [10, 18]: 98
Plant response rating, Lambsquarters [10, 19]: 100
Plant response rating, Lambsquarters [10, 20]: 100
Lambsquarters plant response rating [10, 21]: 100
Plant response rating, Soybean (soybean (Glycine max); [14]): 80
Soybean plant response rating (0 to 100 scale) (soybean (Glycine max); [15]): 95
Plant response rating, Soybean (soybean (Glycine max); [16]): 98
Plant response rating, Soybean (soybean (Glycine max); [17]): 98
Plant response rating, Kochia (kochia (Kochia scoparia); [14]): 75
Kochia plant response rating (0 to 100 scale) (kochia (Kochia scoparia); [15]): 95
Plant response rating, Kochia (kochia (Kochia scoparia); [16]): 100
Plant response rating, Kochia (kochia (Kochia scoparia); [17]): 100
Plant response rating, Kochia (kochia (Kochia scoparia); [18]): 80
Plant response rating, Kochia (kochia (Kochia scoparia); [19]): 90
Plant response rating, Kochia (kochia (Kochia scoparia); [20]): 90
Kochia plant response rating (kochia (Kochia scoparia); [21]): 95
Plant response rating, Blackgrass [11, 14]: 0
Blackgrass plant response rating (0 to 100 scale) [11, 15]: 0
Plant response rating, Blackgrass [11, 16]: 0
Plant response rating, Blackgrass [11, 17]: 20
Plant response rating, Blackgrass [11, 18]: 0
Plant response rating, Blackgrass [11, 19]: 0
Plant response rating, Blackgrass [11, 20]: 5
Blackgrass plant response rating [11, 21]: 10
Plant response rating, Morningglory [12, 14]: 20
Morningglory plant response rating (0 to 100 scale) [12, 15]: 90
Plant response rating, Morningglory [12, 16]: 95
Plant response rating, Morningglory [12, 17]: 95
Plant response rating, Morningglory [12, 18]: 0
Plant response rating, Morningglory [12, 19]: 60
Plant response rating, Morningglory [12, 20]: 75
Morningglory plant response rating [12, 21]: 90
Plant response rating, Pigweed [13, 14]: 100
Pigweed plant response rating (0 to 100 scale) [13, 15]: 100
Plant response rating, Pigweed [13, 16]: 100
Plant response rating, Pigweed [13, 17]: 100
Plant response rating, Pigweed [13, 18]: 98
Plant response rating, Pigweed [13, 19]: 100
Plant response rating, Pigweed [13, 20]: 100
Pigweed plant response rating [13, 21]: 100
